Experimental data: patent publication US20260285850A1, “SUBSTITUTED OXAZOLIDINONES AND IMIDAZOLINONES AS HERBICIDES” (FMC CORPORATION, priority 2023, published 2026)

Key:
Assay type in all cases: in vivo
[1] = tested on: green foxtail (Setaria viridis); test: Test A preemergence soil spray, visual injury rating 0-100; conditions: 10 days, 0 = no effect, 100 = complete control
Method in brief: (§1)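 Compounds formulated in a non-phytotoxic solvent with surfactant are sprayed onto soil of freshly planted loam-sand pots ahead of emergence, or onto emerged plants 2-10 cm tall. After a 10-day greenhouse period, each species is scored visually for injury against untreated controls.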

[2] = tested on: palmer (palmer amaranth, palmer pigweed, Amaranthus palmeri); test: as above; conditions: 10 days, 0 = no effect, 100 = complete control
Method in brief: as §1

[3] = tested on: soybean (Glycine max); test: as above; conditions: 10 days, 0 = no effect, 100 = complete control
Method in brief: as §1

[4] = tested on: ragweed (common ragweed, Ambrosia artemisiifolia); test: as above; conditions: 10 days, 0 = no effect, 100 = complete control
Method in brief: as §1

[5] = tested on: blackgrass (Alopecurus myosuroides); test: as above; conditions: 10 days, 0 = no effect, 100 = complete control
Method in brief: as §1

[6] = tested on: ryegrass, Italian (italian ryegrass, Lolium multiflorum); test: as above; conditions: 10 days, 0 = no effect, 100 = complete control
Method in brief: as §1

[7] = tested on: barnyardgrass (Echinochloa crus-galli); test: as above; conditions: 10 days, 0 = no effect, 100 = complete control
Method in brief: as §1

[8] = tested on: oat, wild (wild oat, Avena fatua); test: as above; conditions: 10 days, 0 = no effect, 100 = complete control
Method in brief: as §1

[9] = tested on: kochia (Bassia scoparia); test: as above; conditions: 10 days, 0 = no effect, 100 = complete control
Method in brief: as §1

[10] = tested on: wheat (Triticum aestivum); test: as above; conditions: 10 days, 0 = no effect, 100 = complete control
Method in brief: as §1

[11] = tested on: corn (Zea mays); test: as above; conditions: 10 days, 0 = no effect, 100 = complete control
Method in brief: as §1

[12] = tested on: green foxtail (Setaria viridis); test: Test A postemergence application, visual injury rating 0-100; conditions: 10 days
Method in brief: as §1

[13] = tested on: palmer (palmer amaranth, palmer pigweed, Amaranthus palmeri); test: as above; conditions: 10 days
Method in brief: as §1

[14] = tested on: soybean (Glycine max); test: as above; conditions: 10 days
Method in brief: as §1

[15] = tested on: ragweed (common ragweed, Ambrosia artemisiifolia); test: as above; conditions: 10 days
Method in brief: as §1

[16] = tested on: blackgrass (Alopecurus myosuroides); test: as above; conditions: 10 days
Method in brief: as §1

[17] = tested on: ryegrass, Italian (italian ryegrass, Lolium multiflorum); test: as above; conditions: 10 days
Method in brief: as §1

[18] = tested on: barnyardgrass (Echinochloa crus-galli); test: as above; conditions: 10 days
Method in brief: as §1

[19] = tested on: oat, wild (wild oat, Avena fatua); test: as above; conditions: 10 days
Method in brief: as §1

[20] = tested on: kochia (Bassia scoparia); test: as above; conditions: 10 days
Method in brief: as §1

[21] = tested on: horseweed (Erigeron canadensis); test: as above; conditions: 10 days
Method in brief: as §1

[22] = tested on: wheat (Triticum aestivum); test: as above; conditions: 10 days
Method in brief: as §1

[23] = tested on: corn (Zea mays); test: as above; conditions: 10 days
Method in brief: as §1

[24] = tested on: galium (catchweed bedstraw, Galium aparine); test: as above; conditions: 10 days
Method in brief: as §1

[25] = tested on: rice (Oryza sativa); test: Test B flooded paddy test, visual plant response rating 0-100; conditions: 250 g ai/ha, Flood, applied to paddy water, evaluated after 13 days
Method in brief: (§2)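 2-leaf plants; flood 3 cm over soil; compound dosed into paddy water; depth kept constant; greenhouse 13 d; visual scoring vs controls. Dash = no result.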

[26] = tested on: ducksalad (Heteranthera limosa); test: as above; conditions: 250 g ai/ha, Flood, applied to paddy water, evaluated after 13 days
Method in brief: as §2

[27] = tested on: barnyardgrass (Echinochloa crusgalli); test: as above; conditions: 250 g ai/ha, Flood, applied to paddy water, evaluated after 13 days
Method in brief: as §2

[28] = tested on: sedge, umbrella (small-flower umbrella sedge, Cyperus difformis); test: as above; conditions: 250 g ai/ha, Flood, applied to paddy water, evaluated after 13 days
Method in brief: as §2

[29] = 31 g ai/ha, postemergence, 0 = no effect, 100 = complete control
[30] = Postemergence, 125 g ai/ha, 0 is no effect, 100 is complete control

Question: Which “Foxtail, Green plant response rating (0-100)” value ([1]; 31 g ai/ha) does the source give for `CCOC(=O)C1=CCC(NC(=O)C2(C)CN(c3cc(F)cc(F)c3)C(=O)O2)C1` (stereo not shown) [Compound 15] here?
Answer: 30

Question: And the “Foxtail, Green plant response rating (0 to 100 scale)” value ([1]; 125 g ai/ha)?
Answer: 100

Question: And the “Amaranth, Palmer plant response rating (0-100)” value ([2]; 31 g ai/ha)?
Answer: 50

Question: What about the “Amaranth, Palmer plant response rating (0 to 100 scale)” value ([2]; 125 g ai/ha) of the same molecule?
Answer: 100

Question: And the “Soybean plant response rating (0-100)” value ([3]; 31 g ai/ha)?
Answer: 0

Question: And the “Soybean plant response rating (0 to 100 scale)” value ([3]; 125 g ai/ha)?
Answer: 30

Question: And the “Ragweed plant response rating (0-100)” value ([4]; 31 g ai/ha)?
Answer: 0

Question: And the “Ragweed plant response rating (0 to 100 scale)” value ([4]; 125 g ai/ha)?
Answer: 0

Question: What about the “Blackgrass plant response rating (0-100)” value ([5]; 31 g ai/ha) of the same molecule?
Answer: 0

Question: And the “Blackgrass plant response rating (0 to 100 scale)” value ([5]; 125 g ai/ha)?
Answer: 40

Question: And the “Ryegrass, Italian plant response rating (0-100)” value ([6]; 31 g ai/ha)?
Answer: 80

Question: And the “Ryegrass, Italian plant response rating (0 to 100 scale)” value ([6]; 125 g ai/ha)?
Answer: 90

Question: And the “Barnyardgrass plant response rating (0-100)” value ([7]; 31 g ai/ha)?
Answer: 0

Question: And the “Barnyardgrass plant response rating (0 to 100 scale)” value ([7]; 125 g ai/ha)?
Answer: 100

Question: What about the “Oat, Wild plant response rating (0-100)” value ([8]; 31 g ai/ha) of the same molecule?
Answer: 0

Question: And the “Oat, Wild plant response rating (0 to 100 scale)” value ([8]; 125 g ai/ha)?
Answer: 50

Question: And the “Kochia plant response rating (0-100)” value ([9]; 31 g ai/ha)?
Answer: 0

Question: And the “Kochia plant response rating (0 to 100 scale)” value ([9]; 125 g ai/ha)?
Answer: 90

Question: What about the “Wheat plant response rating (0-100)” value ([10]; 31 g ai/ha) of the same molecule?
Answer: 50

Question: And the “Wheat plant response rating (0 to 100 scale)” value ([10]; 125 g ai/ha)?
Answer: 90

Question: What about the “Corn plant response rating (0-100)” value ([11]; 31 g ai/ha) of the same molecule?
Answer: 20

Question: And the “Corn plant response rating (0 to 100 scale)” value ([11]; 125 g ai/ha)?
Answer: 60

Question: What about the “Foxtail, Green plant response rating (0-100)” value [12, 29] of the same molecule?
Answer: 90

Question: What about the “Foxtail, Green plant response rating (0 to 100 scale)” value [12, 30] of the same molecule?
Answer: 90

Question: What about the “Amaranth, Palmer plant response rating (0-100)” value [13, 29] of the same molecule?
Answer: 50

Question: What about the “Amaranth, Palmer / Pigweed, Palmer plant response rating (0 to 100 scale)” value [13, 30] of the same molecule?
Answer: 90

Question: And the “Soybean plant response rating (0-100)” value [14, 29]?
Answer: 60

Question: And the “Soybean plant response rating (0 to 100 scale)” value [14, 30]?
Answer: 70

Question: What about the “Ragweed plant response rating (0-100)” value [15, 29] of the same molecule?
Answer: 40

Question: And the “Ragweed plant response rating (0 to 100 scale)” value [15, 30]?
Answer: 50

Question: And the “Blackgrass plant response rating (0-100)” value [16, 29]?
Answer: 70

Question: What about the “Blackgrass plant response rating (0 to 100 scale)” value [16, 30] of the same molecule?
Answer: 100

Question: And the “Ryegrass, Italian plant response rating (0-100)” value [17, 29]?
Answer: 80

Question: And the “Ryegrass, Italian plant response rating (0 to 100 scale)” value [17, 30]?
Answer: 90

Question: What about the “Barnyardgrass plant response rating (0-100)” value [18, 29] of the same molecule?
Answer: 100

Question: And the “Barnyardgrass plant response rating (0 to 100 scale)” value [18, 30]?
Answer: 100

Question: And the “Oat, Wild plant response rating (0-100)” value [19, 29]?
Answer: 90

Question: And the “Oat, Wild plant response rating (0 to 100 scale)” value [19, 30]?
Answer: 90

Question: What about the “Kochia plant response rating (0-100)” value [20, 29] of the same molecule?
Answer: 70

Question: What about the “Kochia plant response rating (0 to 100 scale)” value [20, 30] of the same molecule?
Answer: 70

Question: What about the “Horseweed plant response rating (0-100)” value [21, 29] of the same molecule?
Answer: 0

Question: And the “Horseweed plant response rating (0 to 100 scale)” value [21, 30]?
Answer: 0

Question: And the “Wheat plant response rating (0-100)” value [22, 29]?
Answer: 90

Question: What about the “Wheat plant response rating (0 to 100 scale)” value [22, 30] of the same molecule?
Answer: 90

Question: And the “Corn plant response rating (0-100)” value [23, 29]?
Answer: 100

Question: What about the “Corn plant response rating (0 to 100 scale)” value [23, 30] of the same molecule?
Answer: 100

Question: What about the “Galium plant response rating (0-100)” value [24, 29] of the same molecule?
Answer: 80

Question: And the “Galium plant response rating (0 to 100 scale)” value [24, 30]?
Answer: 90

Question: What about the “Plant response rating, Rice (0 to 100 scale, 0 is no effect and 100 is complete control)” value [25] of the same molecule?
Answer: 65

Question: And the “Plant response rating, Ducksalad (0 to 100 scale, 0 is no effect and 100 is complete control)” value [26]?
Answer: 80

Question: And the “Plant response rating, Barnyardgrass (0 to 100 scale, 0 is no effect and 100 is complete control)” value [27]?
Answer: 60

Question: And the “Plant response rating, Sedge, Umbrella (0 to 100 scale, 0 is no effect and 100 is complete control)” value [28]?
Answer: 70
